Source: PMC5660078, “Cysteinyl-tRNA synthetase governs cysteine polysulfidation and mitochondrial bioenergetics” (Nature Communications, 2017)

What was measured:
[1] = molecular target: T1, mouse CARS1 (Mus musculus, UniProt Q9ER72); assay: HPE-IAM labeling LC-MS/MS of CysSSH and CysSSSH; format: biochemical; details: 25 µM L-cysteine, 100 µM PLP, 37 °C, 2 h
T1 sequence (Q9ER72 2-831): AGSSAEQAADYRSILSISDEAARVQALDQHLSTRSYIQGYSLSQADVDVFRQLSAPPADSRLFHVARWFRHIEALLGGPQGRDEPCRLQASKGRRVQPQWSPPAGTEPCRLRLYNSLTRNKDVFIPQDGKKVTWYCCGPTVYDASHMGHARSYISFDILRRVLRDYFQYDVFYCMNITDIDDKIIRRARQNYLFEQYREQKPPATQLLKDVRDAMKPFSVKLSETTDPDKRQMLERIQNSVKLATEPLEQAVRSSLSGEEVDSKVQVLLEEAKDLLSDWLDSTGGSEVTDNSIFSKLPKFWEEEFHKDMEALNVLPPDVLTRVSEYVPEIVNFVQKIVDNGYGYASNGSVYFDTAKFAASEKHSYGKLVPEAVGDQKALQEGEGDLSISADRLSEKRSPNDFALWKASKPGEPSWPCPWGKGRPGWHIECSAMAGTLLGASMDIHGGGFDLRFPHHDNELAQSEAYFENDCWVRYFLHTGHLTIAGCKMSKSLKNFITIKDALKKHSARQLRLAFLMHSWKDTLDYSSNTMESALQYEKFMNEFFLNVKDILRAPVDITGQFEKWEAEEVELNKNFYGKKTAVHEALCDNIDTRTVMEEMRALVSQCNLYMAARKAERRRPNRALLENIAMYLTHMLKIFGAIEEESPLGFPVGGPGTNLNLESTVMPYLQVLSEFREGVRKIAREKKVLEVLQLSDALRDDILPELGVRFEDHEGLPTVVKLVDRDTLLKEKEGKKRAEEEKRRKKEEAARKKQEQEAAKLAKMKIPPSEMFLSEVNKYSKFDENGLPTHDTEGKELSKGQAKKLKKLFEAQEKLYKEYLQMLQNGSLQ

[2] = molecular target: T2, human CARS2 (Homo sapiens, UniProt Q9HA77); assay: DNPH derivatization, LC-ESI-MS/MS of bound PLP; format: binding; details: 37 °C, 1 h, 0-100 µM PLP
T2 sequence (Q9HA77 1-564): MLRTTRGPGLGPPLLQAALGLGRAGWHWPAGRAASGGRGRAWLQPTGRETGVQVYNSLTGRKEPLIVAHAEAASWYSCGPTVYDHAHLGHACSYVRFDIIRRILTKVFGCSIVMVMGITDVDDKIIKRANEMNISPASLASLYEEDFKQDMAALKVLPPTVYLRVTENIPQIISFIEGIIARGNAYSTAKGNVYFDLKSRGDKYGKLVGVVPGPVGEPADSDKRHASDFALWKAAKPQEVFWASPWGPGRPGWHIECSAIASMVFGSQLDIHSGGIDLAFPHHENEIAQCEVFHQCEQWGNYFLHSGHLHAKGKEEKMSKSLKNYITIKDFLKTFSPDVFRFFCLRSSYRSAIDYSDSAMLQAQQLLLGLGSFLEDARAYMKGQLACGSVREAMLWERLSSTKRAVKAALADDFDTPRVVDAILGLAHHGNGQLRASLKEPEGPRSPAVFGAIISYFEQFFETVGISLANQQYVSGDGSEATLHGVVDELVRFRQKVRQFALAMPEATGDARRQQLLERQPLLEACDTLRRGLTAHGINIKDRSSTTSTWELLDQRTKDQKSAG

[3] = molecular target: T3, EcCARS (Escherichia coli, UniProt P21888); assay: HPE-IAM labeling LC-ESI-MS/MS of CysSSH formed, Michaelis-Menten fit; format: biochemical; details: persulfide synthase reaction; 50 mM HEPES pH 7.5, 25 mM KCl, 15 mM MgCl2, 37 °C, 30 s
T3 construct: gene cysS
T3 sequence (P21888 1-461): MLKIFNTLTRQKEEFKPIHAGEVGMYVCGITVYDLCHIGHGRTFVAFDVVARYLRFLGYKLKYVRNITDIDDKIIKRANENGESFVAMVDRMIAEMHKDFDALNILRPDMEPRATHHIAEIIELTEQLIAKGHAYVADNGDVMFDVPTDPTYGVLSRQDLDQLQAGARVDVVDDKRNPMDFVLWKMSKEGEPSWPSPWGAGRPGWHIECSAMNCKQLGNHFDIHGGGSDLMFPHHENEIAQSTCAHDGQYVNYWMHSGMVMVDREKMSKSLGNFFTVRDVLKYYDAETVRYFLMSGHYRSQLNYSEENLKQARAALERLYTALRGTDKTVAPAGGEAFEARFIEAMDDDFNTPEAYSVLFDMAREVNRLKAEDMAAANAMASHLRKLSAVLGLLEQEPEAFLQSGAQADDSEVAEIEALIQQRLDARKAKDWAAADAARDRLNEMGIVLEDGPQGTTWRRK

Compound	HPE-IAM labeling LC-MS/MS of CysSSH and CysSSSH [1]	DNPH derivatization, LC-ESI-MS/MS of bound PLP [2]	Km [3]
Cc1ncc(COP(=O)(O)O)c(C=O)c1O [pyridoxal phosphate]	PLP-dependent CysSSH and CysSSSH biosynthesis by mouse CARS1 and human CARS2	Precisely quantitative analysis for PLP bound to human CRAS2	
N[C@@H](CS)C(=O)O [L-cysteine]			EcCARS is very efficient in producing CysSSH
